Measurements published in patent US20250092065A1, “2-(INDAZOL-5-YL)-6-(PIPERIDIN-4-YL)-1,7-NAPHTHYRIDINE DERIVATIVES AND RELATED COMPOUNDS AS MODULATORS FOR SPLICING NUCLEIC ACIDS AND FOR THE TREATMENT OF PROLIFERATIVE DISEASES” (REMIX THERAPEUTICS INC., priority 2022, published 2025).
Where two headings read alike, the source gives them in different places.

Key:
MYB = assay: HiBiT protein abundance assay, MYB (K562 HiBiT knock-in); type: cell-based, human; conditions: HiBiT knock-in K562 cells, 24 hours, top dose 10 μM
Method in brief: (§1)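 K562 HiBiT knock-in, 24 h, 37 °C, top 10 μM final, 3-fold ×10, DMSO ≤0.25%. Lytic HiBiT luminescence; PC = parental K562, NC = DMSO; 4PL IC50.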

MYB mRNA = assay: RT-qPCR splicing assay, MYB mRNA canonical (CJ) and alternative (AJ) junction; type: cell-based, human; conditions: Homo sapiens; for AC50: MYB alternative junction mRNA, read-out: MYB AJ (increase in AJ mRNA, AC50)
Method in brief: (§2)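 Both isoforms, CJ and AJ, read by qPCR from crude lysates of treated A673 or K562 cells; 24 h, 37 °C, maximum 10 uM. Normalization: housekeeper ΔCt, then DMSO ΔΔCt.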

K562 cells = assay: Cell Titer Glo 2.0 cell viability (toxicity) assay, K562; conditions: 500 cells/well, 72 hours
HTT mRNA = assay: RT-qPCR splicing assay, HTT mRNA canonical (CJ) and alternative (AJ) junction; type: cell-based, human; conditions: Homo sapiens; for AC50: HTT alternative junction mRNA, read-out: HTT AJ (increase in AJ mRNA, AC50)
Method in brief: as §2

HTT = assay: HiBiT protein abundance assay, HTT (K562 HiBiT knock-in); type: cell-based, human; conditions: HiBiT knock-in K562 cells, 24 hours, top dose 10 μM
Method in brief: as §1

[1] = MYB canonical junction mRNA, RT-qPCR, read-out: MYB CJ (decrease in CJ mRNA levels, IC50)
[2] = canonical junction qPCR panel, Table 4, read-out: MYB IC50 (decrease in CJ mRNA levels)
[3] = HTT canonical junction mRNA, RT-qPCR, read-out: HTT CJ (decrease in CJ mRNA levels, IC50)
[4] = canonical junction qPCR panel, Table 4, read-out: HTT IC50 (decrease in CJ mRNA levels)

| Structure (SMILES) | IC50 (MYB) | IC50 (MYB mRNA; [1]) | IC50 (MYB mRNA; [2]) | IC50 (HTT mRNA; [3]) | IC50 (HTT mRNA; [4]) | IC50 (HTT) | AC50 (MYB mRNA; RT-qPCR) | Effect of Exemplary Compounds on Cell Viability, K562 (K562 cells) | AC50 (HTT mRNA; RT-qPCR) |
| --- | --- | --- | --- | --- | --- | --- | --- | --- | --- |
| Cc1nc2c(C)c(O)c(-c3ccc4nc(N5CCC(NC(C)C)C5)ccc4n3)cc2o1 (stereo not drawn) [Compound 312, 6-{6-[3-(isopropylamino)pyrrolidin-1-yl]-1,5-naphthyridin-2-yl}-2,4-dimethyl-1,3-benzoxazol-5-ol] | < 100 nM | < 100 nM | < 100 nM | < 100 nM | < 100 nM | < 100 nM | < 100 nM | A (A represents <100 nM) | < 100 nM |
| Cn1cc2cc(-c3ccc4nc(N5CCC(NC6CCC6)C5)ccc4n3)c(O)c(F)c2n1 (stereo not drawn) [Compound 315, 5-{6-[3-(cyclobutylamino)pyrrolidin-1-yl]-1,5-naphthyridin-2-yl}-7-fluoro-2-methylindazol-6-ol] | < 100 nM | < 100 nM | < 100 nM | < 100 nM | < 100 nM | < 100 nM | < 100 nM | A (A represents <100 nM) | < 100 nM |
| Cc1c(O)c(-c2ccc3nc(N4CCC(NC(C)C)C4)ccc3n2)cc2cn(C)nc12 (stereo not drawn) [Compound 318, 5-{6-[3-(isopropylamino)pyrrolidin-1-yl]-1,5-naphthyridin-2-yl}-2,7-dimethylindazol-6-ol] | < 100 nM | < 100 nM | < 100 nM | < 100 nM | < 100 nM | < 100 nM | < 100 nM | A (A represents <100 nM) | < 100 nM |
| Cc1c(O)c(-c2ccc3nc(N4CC[C@H](NC(C)C)C4)ccc3n2)cc2cn(C)nc12 [Compound 320] | < 100 nM | < 100 nM | < 100 nM | < 100 nM | < 100 nM | < 100 nM | < 100 nM | B (B represents 100-1000 nM) | < 100 nM |
| Cc1nc2c(F)c(O)c(-c3ccc4nc(N5CCC(NC6(C)CC6)C5)ccc4n3)cc2o1 (stereo not drawn) [Compound 325, 4-fluoro-2-methyl-6-(6-{3-[(1-methylcyclopropyl)amino]pyrrolidin-1-yl}-1,5-naphthyridin-2-yl)-1,3-benzoxazol-5-ol] | < 100 nM | < 100 nM | < 100 nM | < 100 nM | < 100 nM | < 100 nM | < 100 nM | B (B represents 100-1000 nM) | < 100 nM |

The next lines start with results.

| IC50 (MYB) | IC50 (MYB mRNA; [1]) | IC50 (MYB mRNA; [2]) | IC50 (HTT mRNA; [3]) | IC50 (HTT mRNA; [4]) | IC50 (HTT) | Structure (SMILES) | AC50 (MYB mRNA; RT-qPCR) | Effect of Exemplary Compounds on Cell Viability, K562 (K562 cells) | AC50 (HTT mRNA; RT-qPCR) |
| --- | --- | --- | --- | --- | --- | --- | --- | --- | --- |
| < 100 nM | < 100 nM | < 100 nM | < 100 nM | < 100 nM | < 100 nM | Cc1nc2c(F)c(O)c(-c3ccc4nc(N5CCC(NC(C)C)C5)ccc4n3)cc2o1 (stereo not drawn) [Compound 328, 4-fluoro-6-{6-[3-(isopropylamino)pyrrolidin-1-yl]-1,5-naphthyridin-2-yl}-2-methyl-1,3-benzoxazol-5-ol] | < 100 nM | A (A represents <100 nM) | < 100 nM |
| 100 to 1000 nM | < 100 nM | < 100 nM | 100 to 1000 nM | 100 to 1000 nM | 100 to 1000 nM | CN[C@@H]1CCN(c2ccc3nc(-c4cc(F)c5nc(C)cn5c4)ncc3n2)C1 [Compound 331, (3R)-1-(2-{8-fluoro-2-methylimidazo[1,2-a]pyridin-6-yl}pyrido[3,2-d]pyrimidin-6-yl)-N-methylpyrrolidin-3-amine] | 100 to 1000 nM | B (B represents 100-1000 nM) | 100 to 1000 nM |
| 100 to 1000 nM | 100 to 1000 nM | 100 to 1000 nM | 100 to 1000 nM | 100 to 1000 nM | 100 to 1000 nM | CN[C@H]1CCN(c2ccc3nc(-c4cc(F)c5nc(C)cn5c4)ncc3n2)C1 [Compound 332, (S)-1-(2-(8-fluoro-2-methylimidazo[1,2-a]pyridin-6-yl)pyrido[3,2-d]pyrimidin-6-yl)-N-methylpyrrolidin-3-amine] | 100 to 1000 nM | B (B represents 100-1000 nM) | 100 to 1000 nM |
